Key:
human GPR55 = molecular target: T1, human GPR55 (Homo sapiens, UniProt Q9Y2T6); test: β-Arrestin recruitment assay (PathHunter) at GPR55; format: cell-based; conditions: for IC50: Human GPR55 IC50, β-arrestin assay, antagonist mode; for Human GPR55 % activation / Human GPR55 % inhibition: β-arrestin assay; for Human GPR55 % activation: percent in brackets beside EC50 >10 µM; for Human GPR55 % inhibition: percent in brackets beside IC50
T1 construct: β-galactosidase enzyme fragment (PathHunter complementation tag)
T1 sequence (Q9Y2T6 whole entry, the tested form may be a part): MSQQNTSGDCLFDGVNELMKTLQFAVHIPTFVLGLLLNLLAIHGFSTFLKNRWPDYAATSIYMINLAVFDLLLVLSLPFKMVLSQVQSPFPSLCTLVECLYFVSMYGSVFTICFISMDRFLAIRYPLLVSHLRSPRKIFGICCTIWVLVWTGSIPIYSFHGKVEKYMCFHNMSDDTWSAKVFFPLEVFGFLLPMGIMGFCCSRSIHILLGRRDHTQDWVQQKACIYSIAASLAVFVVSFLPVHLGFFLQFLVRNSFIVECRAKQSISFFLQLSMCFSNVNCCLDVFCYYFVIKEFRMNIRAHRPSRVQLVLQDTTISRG
Description: (§1) Recruitment of β-arrestin to the respective receptor was detected by using β-galactosidase enzyme fragment complementation technology (β-arrestin PathHunter™ assay, DiscoverX, Fremont, CA, USA) as previously described. Data were obtained from three independent experiments, performed in duplicates. Data were analyzed using Graph Pad Prism Version 4.02 (San Diego, CA, USA).

human GPR18 = molecular target: T2, human GPR18 (Homo sapiens, UniProt Q14330); test: β-Arrestin recruitment assay (PathHunter) at GPR18; format: cell-based; conditions: for Human GPR18 % activation / Human GPR18 % inhibition: β-arrestin assay; for Human GPR18 % activation: percent in brackets beside EC50 >10 µM; for Human GPR18 % inhibition: percent in brackets beside IC50
T2 construct: β-galactosidase enzyme fragment (PathHunter complementation tag)
T2 sequence (Q14330 1-331): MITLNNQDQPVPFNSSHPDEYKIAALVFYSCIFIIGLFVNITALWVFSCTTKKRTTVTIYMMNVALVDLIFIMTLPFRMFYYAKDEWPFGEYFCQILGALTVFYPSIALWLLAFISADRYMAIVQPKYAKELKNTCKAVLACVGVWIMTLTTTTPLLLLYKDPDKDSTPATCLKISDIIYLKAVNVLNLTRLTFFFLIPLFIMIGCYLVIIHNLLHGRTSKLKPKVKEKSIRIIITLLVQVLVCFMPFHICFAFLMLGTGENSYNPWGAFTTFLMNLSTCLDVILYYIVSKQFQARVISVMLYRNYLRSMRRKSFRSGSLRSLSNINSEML
Description: as §1

Human CB1 = conditions: ref Banister et al. [28]; read-out: EC50 Human CB1 (literature, functional assay) (converted); cited from earlier work
Human CB2 = conditions: ref Banister et al. [28]; read-out: EC50 Human CB2 (literature, functional assay) (converted); cited from earlier work
CB1 receptor [1] = molecular target: T3, CB1 receptor (Homo sapiens, UniProt P21554); test: biochemical; format: binding; set-up: expressed in transfected cells; host or cells: CHO cells (membrane preparation); conditions: for CB1 selectivity Ki CB2/KiCB1: Table S1, selectivity index from Ki values; for Ki: versus 0.1 nM [3H]CP55,940, CHO cell membranes, mean ± SEM of three to five experiments, read-out: Ki ± SEM Human CB1
T3 sequence (P21554 whole entry): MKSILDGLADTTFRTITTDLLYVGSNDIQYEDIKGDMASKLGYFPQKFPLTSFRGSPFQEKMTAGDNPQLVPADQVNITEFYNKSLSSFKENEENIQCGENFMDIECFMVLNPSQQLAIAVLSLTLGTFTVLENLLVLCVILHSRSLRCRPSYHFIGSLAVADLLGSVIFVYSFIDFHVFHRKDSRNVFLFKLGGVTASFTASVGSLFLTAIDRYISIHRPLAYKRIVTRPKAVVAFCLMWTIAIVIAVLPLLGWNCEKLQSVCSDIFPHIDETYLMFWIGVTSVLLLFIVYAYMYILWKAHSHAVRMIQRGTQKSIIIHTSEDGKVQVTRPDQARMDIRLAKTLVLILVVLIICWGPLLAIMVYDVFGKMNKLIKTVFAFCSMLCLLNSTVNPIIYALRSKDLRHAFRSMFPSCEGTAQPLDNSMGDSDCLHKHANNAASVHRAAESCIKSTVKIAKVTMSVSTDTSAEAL

CB2 receptor [2] = molecular target: T4, CB2 receptor (Homo sapiens, UniProt P34972); test: biochemical; format: binding; set-up: expressed in transfected cells; host or cells: CHO cells (membrane preparation); conditions: for Ki: versus 0.1 nM [3H]CP55,940, CHO cell membranes, mean ± SEM of three to five experiments, read-out: Ki ± SEM Human CB2; for CB2 selectivity Ki CB1/KiCB2: Table S1, selectivity index from Ki values
T4 sequence (P34972 whole entry): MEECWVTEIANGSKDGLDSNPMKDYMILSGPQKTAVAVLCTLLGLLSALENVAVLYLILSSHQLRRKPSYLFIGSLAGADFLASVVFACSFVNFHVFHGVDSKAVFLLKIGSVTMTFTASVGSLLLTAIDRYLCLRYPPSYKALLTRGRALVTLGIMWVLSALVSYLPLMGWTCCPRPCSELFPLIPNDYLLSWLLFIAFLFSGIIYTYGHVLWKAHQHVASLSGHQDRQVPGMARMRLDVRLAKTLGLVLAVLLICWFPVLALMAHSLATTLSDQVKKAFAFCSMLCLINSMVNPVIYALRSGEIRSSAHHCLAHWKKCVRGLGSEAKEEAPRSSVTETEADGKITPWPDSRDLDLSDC

CB1 receptor [3] = molecular target: T3, CB1 receptor; test: cell-based; format: cell-based; set-up: expressed in transfected cells; host or cells: CHO cells; conditions: cAMP accumulation, forskolin 10 µM; test concentration 1 µM or 10 µM; normalized to CP55,940
CB2 receptor [4] = molecular target: T4, CB2 receptor; test: cAMP accumulation assay in CHO cells expressing CB2; format: cell-based; set-up: expressed in transfected cells; host or cells: CHO cells; conditions: cAMP accumulation, forskolin 10 µM; test concentration 1 µM or 10 µM; normalized to CP55,940

## O=C(NCc1ccccc1)c1cn(CCCCCF)c2ccccc12 [Compound 13, 5F-SDB-006]
Human GPR55
  EC50: > 10000 nM
  IC50: > 10000 nM
  Human GPR55 % activation: −3%
  Human GPR55 % inhibition: 11%
Human GPR18
  EC50: > 10000 nM
  IC50: > 10000 nM
  Human GPR18 % activation: 13%
  Human GPR18 % inhibition: −24%
Human CB1
  EC50: 50 nM
Human CB2
  EC50: 123 nM
CB1 receptor [1]
  CB1 selectivity Ki CB2/KiCB1: 6.0
  Ki: 71.9 ± 13.5 nM
CB2 receptor [2]
  Ki: 430 ± 73 nM

## CCCCCn1cc(C(=O)NCc2ccccc2)c2ccccc21 [Compound 12, SDB-006]
Human GPR55
  EC50: > 10000 nM
  IC50: > 10000 nM
  Human GPR55 % activation: −5%
  Human GPR55 % inhibition: 36%
Human GPR18
  EC50: > 10000 nM
  IC50: > 10000 nM
  Human GPR18 % activation: −9%
  Human GPR18 % inhibition: 22%
Human CB1
  EC50: 134 nM
Human CB2
  EC50: 19 nM
CB1 receptor [1]
  CB1 selectivity Ki CB2/KiCB1: 3.5
  Ki: 53 ± 1.1 nM
CB2 receptor [2]
  Ki: 188 ± 38 nM

## CC1(C)C(C(=O)c2cn(CCCCCF)c3ccccc23)C1(C)C [Compound 38, XLR-11]
Human CB1
  EC50: 98 nM
Human CB2
  EC50: 83 nM
CB1 receptor [1]
  Ki: 29.4 ± 11 nM
CB2 receptor [2]
  CB2 selectivity Ki CB1/KiCB2: 48.4
  Ki: 0.608 ± 0.151 nM

## O=C(Oc1cccc2cccnc12)c1cn(CC2CCCCC2)c2ccccc12 [Compound 27, BB-22]
Human GPR55
  EC50: > 10000 nM
  IC50: > 10000 nM
  Human GPR55 % activation: 9%
  Human GPR55 % inhibition: 34%
Human GPR18
  EC50: > 10000 nM
  IC50: > 10000 nM
  Human GPR18 % activation: 2%
  Human GPR18 % inhibition: 18%
CB1 receptor [3]
  efficacy at CB1 receptor (in words): higher efficacy than the full agonist CP55,940
CB1 receptor [1]
  CB1 selectivity Ki CB2/KiCB1: 1.6
  Ki: 0.217 ± 0.056 nM
CB2 receptor [2]
  Ki: 0.338 ± 0.045 nM

## O=C(Oc1cccc2ccccc12)c1nn(CCCCCF)c2ccccc12 [Compound 23, 5F-SDB-005]
Human GPR55
  EC50: > 10000 nM
  IC50: > 10000 nM
  Human GPR55 % activation: 21%
  Human GPR55 % inhibition: 47%
Human GPR18
  EC50: > 10000 nM
  IC50: > 10000 nM
  Human GPR18 % activation: 21%
  Human GPR18 % inhibition: 24%
Human CB1
  EC50: 148 nM
Human CB2
  EC50: 136 nM
CB1 receptor [1]
  CB1 selectivity Ki CB2/KiCB1: 1.3
  Ki: 2.58 ± 1.09 nM
CB2 receptor [2]
  Ki: 3.41 ± 1.34 nM

## O=C(NC12CC3CC(CC(C3)C1)C2)c1cn(CCCCCF)c2ccccc12 [Compound 16, STS-135 (5F-APICA)]
Human GPR55
  EC50: > 10000 nM
  IC50: 3410 ± 470 nM
  Human GPR55 % activation: 1%
Human GPR18
  EC50: > 10000 nM
  IC50: > 10000 nM
  Human GPR18 % activation: −2%
  Human GPR18 % inhibition: 30%
Human CB1
  EC50: 51 nM
Human CB2
  EC50: 13 nM
CB1 receptor [1]
  Ki: 2.51 ± 0.35 nM
CB2 receptor [2]
  CB2 selectivity Ki CB1/KiCB2: 3.2
  Ki: 0.794 ± 0.071 nM

## O=C(Oc1cccc2ccccc12)c1cn(CCCCCF)c2ccccc12 [Compound 19, NM-2201]
Human GPR55
  EC50: > 10000 nM
  IC50: > 10000 nM
  Human GPR55 % activation: 17%
  Human GPR55 % inhibition: 23%
Human GPR18
  EC50: > 10000 nM
  IC50: > 10000 nM
  Human GPR18 % activation: −8%
  Human GPR18 % inhibition: 32%
CB1 receptor [3]
  efficacy at CB1 receptor (in words): higher efficacy than the full agonist CP55,940
CB1 receptor [1]
  CB1 selectivity Ki CB2/KiCB1: 2.2
  Ki: 0.332 ± 0.107 nM
CB2 receptor [2]
  Ki: 0.732 ± 0.174 nM

## CCCCCn1nc(C(=O)Nc2cccc3ccccc23)c2ccccc21 [Compound 8, MN-18]
Human GPR55
  EC50: > 10000 nM
  IC50: > 10000 nM
  Human GPR55 % activation: 27%
  Human GPR55 % inhibition: 35%
Human GPR18
  EC50: > 10000 nM
  IC50: > 10000 nM
  Human GPR18 % activation: 2%
  Human GPR18 % inhibition: 37%
CB1 receptor [3]
  efficacy at CB1 receptor (in words): lower efficacy than Δ^9-THC
CB2 receptor [4]
  efficacy at CB2 receptor (in words): lower efficacy than Δ^9-THC
CB1 receptor [1]
  CB1 selectivity Ki CB2/KiCB1: 0.9
  Ki: 3.86 ± 0.9 nM
CB2 receptor [2]
  CB2 selectivity Ki CB1/KiCB2: 1.1
  Ki: 3.47 ± 0.89 nM
